Experimental data reported in US9724319B2, “Compositions and methods for the reduction or prevention of hepatic steatosis” (priority 2014, dated 2017).

What was measured:
[1] = system: hepatic steatosis (lipid vesicles in liver cells); assay: Histological analysis of hepatic lipid accumulation after high fat diet; conditions: Example 3; HFD mice, six weeks; therapeutic metformin; combination: leucine + metformin 0.5 g/kg
Source text: (§1) Chronic high fat diet was used in C57Bl/6 mice as an experimental model of hepatic steatosis. Male C57/BL6 mice were either maintained on standard low-fat diet (control; LFD; 10% energy from fat) or placed on a high fat (HFD; 60% energy from fat, Research Diets #D12492, Research Diets, Inc, New Brunswick, N.J.) at six weeks of age to induce obesity and fatty infiltration of the liver. […] Animals were then randomized to treatments for an additional six weeks, with 10 animals per group, as specified in the following examples.
In this study, the effects of metformin alone (therapeutic dose), subtherapeutic metformin alone, subtherapeutic leucine, and various combinations of leucine, metformin, and resveratrol on liver weight and hepatic lipid accumulation were assessed. The 1.5 g/kg diet of metformin corresponds to a therapeutically effective dose of metformin in humans. […] Likewise, the 24 g/kg dose of leucine represents a sub-therapeutic dose that was predicted to exert no significant independent effects on liver mass or hepatic steatosis. […]
In this study, the effects of metformin alone (therapeutic dose) vs. combination therapy with sub-therapeutic amounts of metformin and leucine on liver weight and hepatic lipid accumulation were assessed. […]

[2] = system: high fat diet-induced hepatic steatosis; assay: Liver weight after treatment of high fat diet-induced hepatic steatosis; format: in vivo, C57Bl/6 mice; conditions: HFD mice, six weeks, metformin 1.5 g/kg diet
Source text: as §1
In this study, the effects of metformin alone (therapeutic dose), subtherapeutic metformin alone, subtherapeutic leucine, and various combinations of leucine, metformin, and resveratrol on liver weight and hepatic lipid accumulation were assessed. The 1.5 g/kg diet of metformin corresponds to a therapeutically effective dose of metformin in humans. […] Likewise, the 24 g/kg dose of leucine represents a sub-therapeutic dose that was predicted to exert no significant independent effects on liver mass or hepatic steatosis. Following induction of hepatic steatosis as described in Example 1, animals were treated according to the following treatment groups as depicted in Table 21:
(§2) In this study, the effects of metformin alone (therapeutic dose) vs. combination therapy with sub-therapeutic amounts of metformin and leucine on liver weight and hepatic lipid accumulation were assessed. Following induction of hepatic steatosis as described in Example 1, animals were treated for six weeks according to the following treatment groups as depicted in Table 22:

[3] = system: liver triglycerides; conditions: Example 3; HFD mice, six weeks; metformin alone 1.5 g/kg diet; combination: leucine + metformin 0.5 g/kg
Source text: as §1, §2

[4] = system: HFD-induced hepatic steatosis; assay: Prophylactic treatment concurrent with high fat diet feeding (Examples 6-8); format: in vivo, C57Bl/6 mice; conditions: treatments and HFD initiated on the same day, six weeks, doses as Tables 25-27
Method: C57Bl/6 mice are assigned to the following experimental groups as depicted in Table 25: Drug treatments and high fat diet feeding (as described in Example 1) are initiated on the same day and are carried out for six weeks. The effects of the treatments and diet on liver mass and hepatic lipid accumulation are assessed as described in the preceding examples. […] C57Bl/6 mice are assigned to the following experimental groups as depicted in Table 26: Drug treatments and high fat diet feeding (as described in Example 1) are initiated on the same day and are carried out for six weeks. The effects of the treatments and diet on liver mass and hepatic lipid accumulation are assessed as described in the preceding examples. […] In this study, the prophylactic effects of sub-therapeutic leucine alone, and co-administration of leucine and the PDE5-specific inhibitor icariin on liver mass and hepatic steatosis are assessed. C57Bl/6 mice are assigned to the following experimental groups as depicted in Table 27: Drug treatments and high fat diet feeding (as described in Example 1) are initiated on the same day and are carried out for six weeks. The effects of the treatments and diet on liver mass and hepatic lipid accumulation are assessed as described in the preceding examples.

[5] = system: liver mass or hepatic lipid accumulation; conditions: 25 mg icariin/kg diet; corresponding to 4 mg/kg body weight/day; cited from earlier work

## metformin
[1]
  Effect on hepatic steatosis (histological analysis): partially reversed hepatic steatosis
[2]; Example 2, leucine 24 g/kg diet, resveratrol 12.5 mg/kg diet
  Effect on liver weight: partially reverse the effect of high fat diet on liver weight
[2]; Example 3
  Effect on liver weight: reversed the effect of high fat diet on liver weight back to control levels
[2]; Example 4
  Effect on liver weight: reversed the effect of high fat diet on liver weight back to control levels
[3]
  Effect on liver triglycerides: partially reversed the effect of high fat diet on liver triglycerides
[4]
  Effect on HFD-induced hepatic lipid accumulation: attenuates
  Effect on HFD-induced increase in liver mass: attenuates

## COc1ccc(-c2oc3c(CC=C(C)C)c(O[C@@H]4O[C@H](CO)[C@@H](O)[C@H](O)[C@H]4O)cc(O)c3c(=O)c2O[C@@H]2O[C@@H](C)[C@H](O)[C@@H](O)[C@H]2O)cc1 [icariin]
[5]
  Effect on hepatic lipid accumulation: no effect
  Effect on liver mass: no effect
